Among the data in US20050058707A1, “Uniform delivery of topiramate over prolonged period of time with enhanced dispersion formulation” (priority 2003, published 2005) are solubility and solubility in water values, retold here.

The structures appear in SMILES notation. In brackets after ≈: the same amount, converted by molar mass. Read-outs that look alike come from different tables or passages of the source.

Data set [1] in a line: Aqueous solubility of topiramate. It counts as physicochemical. Particulars: 37 °C, thermodynamic from solid. On the procedure:
Aqueous solubility is determined by adding the therapeutic agent to stirred or agitated water maintained in a constant temperature bath at a temperature of 37 degrees centigrade until no more agent dissolves. The resulting solution saturated with active agent is then filtered, typically under pressure through a 0.8-micron Millipore filter, and the concentration in solution is measured by any appropriate analytical method including gravimetric, ultraviolet spectrophometry, chromatography, and the like.

For data set [2] the following is noted: Physicians' Desk Reference; cited from earlier work.

As for `CC1(C)O[C@@H]2[C@@H](CO[C@@]3(COS(N)(=O)=O)OC(C)(C)O[C@@H]23)O1` [Topiramate, topiramate], the solubility – broadly, the dissolved amount per volume that the medium holds – in data set [1] (de-ionized water, read-out: Solubility of neat topiramate measured in de-ionized water) was 12 mg/mL (≈ 35.4 mM); in data set [1] (water, read-out: solubility), 9.8 to 13 mg/mL (≈ 28.9 to 38.3 mM). Further, the solubility in water result in data set [2] was “about 9.8 mg/ml”.
